Results from patent US7211572B2 (Japan Tobacco Inc., priority 2003, dated 2007).
Where a name gives a salt, the structure may show the parent alone.

target: T1, HIV integrase (Human immunodeficiency virus type 1 group M subtype B, UniProt P12497, F1332H); test: Determination of enzyme (HIV integrase) inhibitory activity; type: biochemical; conditions: recombinant HIV integrase (F185H), strand transfer ELISA, absorbance at 450 nm
T1 construct: HIV integrase full length gene; made in house; host or cells: Escherichia coli BL21(DE3), plasmid pET21a-INH
In short: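 Full-length integrase with F185H, expressed in E. coli and purified, was reacted for 60 min at 37 °C with compound and biotinylated donor DNA bound to streptavidin plates. Target DNA was added for 10 min, then anti-digoxigenin-peroxidase detection at A450; IC50 from % inhibition versus enzyme-free blank.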

`O=C(NCc1ccccn1)c1cn2c(c(O)c1=O)C(=O)N(Cc1ccc(F)cc1)CC2` [Example 410, N-(pyridin-2-ylmethyl)-2-(4-fluorobenzyl)-9-hydroxy-1,8-dioxo-1,3,4,8-tetrahydro-2H-pyrido[1,2-a]pyrazine-7-carboxamide hydrochloride] and `O=C(NCc1ccco1)c1cn2c(c(O)c1=O)C(=O)N(Cc1ccc(F)cc1)CC2` [Example 411, N-(furan-2-ylmethyl)-2-(4-fluorobenzyl)-9-hydroxy-1,8-dioxo-1,3,4,8-tetrahydro-2H-pyrido[1,2-a]pyrazine-7-carboxamide hydrochloride] fall in the same range of IC50: 10 to 100 nM for the first, 10 to 100 nM for the second.

First: CC(C)(C)C(=O)c1cn2c(c(O)c1=O)C(=O)N(Cc1ccc(F)cc1)CC2(C)C [Example 412, 7-(2,2-dimethylpropionyl)-2-(4-fluorobenzyl)-9-hydroxy-4,4-dimethyl-3,4-dihydro-2H-pyrido[1,2-a]pyrazine-1,8-dione hydrochloride]
Second: CC1(C)CN(Cc2ccc(F)cc2)C(=O)c2c(O)c(=O)c(Br)cn21 [Example 413, 7-bromo-2-(4-fluorobenzyl)-9-hydroxy-4,4-dimethyl-3,4-dihydro-2H-pyrido[1,2-a]pyrazine-1,8-dione hydrochloride]
The IC50 of the first is lower: 10 to 100 nM for the first, 100 to 1000 nM for the second. The first is the more potent here.

First: CC1(C)CN(Cc2ccc(F)cc2)C(=O)c2c(O)c(=O)c(-c3ccccn3)cn21 [Example 414, 2-(4-fluorobenzyl)-9-hydroxy-4,47dimethyl-7-(pyridin-2-yl)-3,4-dihydro-2H-pyrido[1,2-a]pyrazine-1,8-dione hydrochloride]
Second: COCc1c(-c2ccccn2)c(=O)c(O)c2n1CCN(Cc1ccc(F)cc1)C2=O [Example 424, 2-(4-fluorobenzyl)-9-hydroxy-6-methoxymethyl-7-(pyridin-2-yl)-3,4-dihydro-2H-pyrido[1,2-a]pyrazine-1,8-dione hydrochloride]
The IC50 of the first is higher: 100 to 1000 nM for the first, 10 to 100 nM for the second.

`CN(C)c1ccc(CNC(=O)c2cn3c(c(O)c2=O)C(=O)N(Cc2ccc(F)cc2)CC3)cc1` [Example 415, N-(4-dimethylaminobenzyl)-2-(4-fluorobenzyl)-9-hydroxy.-1,8-dioxo-1,3,4,8-tetrahydro-2H-pyrido[1,2-a]pyrazine-7-carboxamide hydrochloride] and `CS(=O)(=O)c1ccc(CNC(=O)c2cn3c(c(O)c2=O)C(=O)N(Cc2ccc(F)cc2)CC3)cc1` [Example 421, N-(4-methanesulfonylbenzyl)-2-(4-fluorobenzyl)-9-hydroxy-1,8-dioxo-1,3,4,8-tetrahydro-2H-pyrido[1,2-a]pyrazine-7-carboxamide hydrochloride] fall in the same range of IC50: 10 to 100 nM for the first, 10 to 100 nM for the second.

`O=C1c2c(O)c(=O)c(-c3cnccn3)cn2CCN1Cc1cccc(Cl)c1` [Example 416, 2-(3-chlorobenzyl)-9-hydroxy-7-(pyrazin-2-yl)-3,4-dihydro-2H-pyrido[1,2-a]pyrazine-1,8-dione hydrochloride] and `O=C1c2c(O)c(=O)c(-c3cnccn3)cn2CCN1Cc1ccc(F)cc1` [Example 417, 2-(4-fluorobenzyl)-9-hydroxy-7-(pyrazin-2-yl)-3,4-dihydro-2H-pyrido[1,2-a]pyrazine-1,8-dione hydrochloride] fall in the same range of IC50: 10 to 100 nM for the first, 10 to 100 nM for the second.

First: O=C1c2c(O)c(=O)c(NS(=O)(=O)c3ccccc3)cn2CCN1Cc1ccc(F)c(Cl)c1 [Example 418, N-[2-(3-chloro-4-fluorobenzyl)-9-hydroxy-1,8-dioxo-1,3,4,8-tetrahydro-2H-pyrido[1,2-a]pyrazin-7-yl]benzenesulfonamide]
Second: O=C1c2c(O)c(=O)c(NS(=O)(=O)Cc3ccccc3)cn2CCN1Cc1ccc(F)c(Cl)c1 [Example 419, N-[2-(3-chloro-4-fluorobenzyl)-9-hydroxy-1,8-dioxo-1,3,4,8-tetrahydro-2H-pyrido[1,2-a]pyrazin-7-yl]benzylsulfonamide]
The IC50 of the first is higher: 10 to 100 nM for the first, less than 10 nM for the second. The second is the more potent here.

`O=C1c2c(O)c(=O)c(NS(=O)(=O)c3cccs3)cn2CCN1Cc1ccc(F)c(Cl)c1` [Example 420, N-[2-(3-chloro-4-fluorobenzyl)-9-hydroxy-1,8-dioxo-1,3,4,8-tetrahydro-2H-pyrido[1,2-a]pyrazin-7-yl]-2-thiophenesulfonamide] and `COc1ccnc(CNC(=O)c2cn3c(c(O)c2=O)C(=O)N(Cc2ccc(F)cc2)CC3)n1` [Example 426, N-(4-methoxypyrimidin-2-ylmethyl)-2-(4-fluorobenzyl)-9-hydroxy-1,8-dioxo-1,3,4,8-tetrahydro-2H-pyrido[1,2-a]pyrazine-7-carboxamide hydrochloride] fall in the same range of IC50: 10 to 100 nM for the first, 10 to 100 nM for the second.

`CC(C)(C)C(O)Cc1cc(=O)c(O)c2n1CCN(Cc1ccc(F)cc1)C2=O` (centres unmarked) [Example 422, 2-(4-fluorobenzyl)-9-hydroxy-6-(2-hydroxy-3,3-dimethylbutyl)-3,4-dihydro-2H-pyrido[1,2-a]pyrazine-1,8-dione hydrochloride] and `CC(C)(C)C(=O)Cc1c(C(=O)C(C)(C)C)c(=O)c(O)c2n1CCN(Cc1ccc(F)cc1)C2=O` [Example 427, 6-(3,3-dimethyl-2-oxobutyl)-7-(2,2-dimethylpropionyl)-2-(4-fluorobenzyl)-9-hydroxy-3,4-dihydro-2H-pyrido [1,2-a]pyrazine-1,8-dione hydrochloride] fall in the same range of IC50: 10 to 100 nM for the first, 10 to 100 nM for the second.

First: CC(=O)Nc1cn2c(C)cn(Cc3cccc(Cl)c3)c(=O)c2c(O)c1=O [Example 423, N-[2-(3-chlorobenzyl)-9-hydroxy-4-methyl-1,8-dioxo-1,8-dihydro-2H-pyrido[1,2-a]pyrazin-7-yl]acetamide]
Second: CC(C)C(O)c1cn(Cc2ccc(Cl)c(Cl)c2)c(=O)c2c(O)c(=O)ccn12 (centres unmarked) [Example 432, 2-(3,4-dichlorobenzyl)-9-hydroxy-4-(1-hydroxy-2-methylpropyl)-2H-pyrido[1,2-a]pyrazine-1,8-dione]
The IC50 of the first is higher: 10 to 100 nM for the first, less than 10 nM for the second. The second is the more potent here.

First: COCC(C)(C)C(=O)c1cn2ccn(Cc3ccc(F)cc3)c(=O)c2c(O)c1=O [Example 425, 2-(4-fluorobenzyl)-9-hydroxy-7-(3-methoxy-2,2-dimethylpropionyl)-2H-pyrido[1,2-a]pyrazine-1,8-dione hydrochloride]
Second: CC(=O)Nc1ccc(CNC(=O)c2cn3c(c(O)c2=O)C(=O)N(Cc2ccc(F)cc2)CC3)cc1 [Example 428, N-(4-acetylaminobenzyl)-2-(4-fluorobenzyl)-9-hydroxy-1,8-dioxo-1,3,4,8-tetrahydro-2H-pyrido[1,2-a]pyrazine-7-carboxamide]
The IC50 of the first is lower: less than 10 nM for the first, 10 to 100 nM for the second.

`O=c1ccn2c(CCO)cn(Cc3ccc(Cl)c(Cl)c3)c(=O)c2c1O` [Example 429, 2-(3,4-dichlorobenzyl)-9-hydroxy-4-(2-hydroxyethyl)-2H-pyrido[1,2-a]pyrazine-1,8-dione hydrochloride] and `O=c1ccn2c(CCCO)cn(Cc3ccc(Cl)c(Cl)c3)c(=O)c2c1O` [Example 431, 2-(3,4-dichlorobenzyl)-9-hydroxy-4-(3-hydroxypropyl)-2H-pyrido[1,2-a]pyrazine-1,8-dione] fall in the same range of IC50: 10 to 100 nM for the first, 10 to 100 nM for the second.

`CCC(O)c1cn(Cc2ccc(Cl)c(Cl)c2)c(=O)c2c(O)c(=O)ccn12` (centres unmarked) [Example 430, 2-(3,4-dichlorobenzyl)-9-hydroxy-4-(1-hydroxypropyl)-2H-pyrido[1,2-a]pyrazine-1,8-dione] gave an IC50 of 10 to 100 nM.
